Where a name gives a salt, the structure may show the parent alone.
Experiments:
[1] = test system: Phosphorylated Ribosomal Protein S6 (RPS6) in THP-1 cells; experiment: THP-1 RPS6 ELISA assay; type: cell-based, human; details: Homo sapiens, THP-1, THP-1 cells, 10 nM MCP-1; read-out: PI3Kγ_THP1_RPS6_ELISA IC50
[2] = biological target: PI3Kδ (p110δ/p85α) Recombinant Human Protein (Homo sapiens (Human), UniProt O00329); experiment: PI3Kδ scintillation proximity assay; type: biochemical; details: 2 μM ATP, 20 μM PIP2
[3] = biological target: PI3Kγ (p110γ) Recombinant Human Protein (Homo sapiens (Human), UniProt P48736); experiment: PI3K-γ scintillation proximity assay; type: biochemical; details: 2 μM ATP, 20 μM PIP2
Chain of PI3Kγ (p110γ) Recombinant Human Protein (P48736 whole entry): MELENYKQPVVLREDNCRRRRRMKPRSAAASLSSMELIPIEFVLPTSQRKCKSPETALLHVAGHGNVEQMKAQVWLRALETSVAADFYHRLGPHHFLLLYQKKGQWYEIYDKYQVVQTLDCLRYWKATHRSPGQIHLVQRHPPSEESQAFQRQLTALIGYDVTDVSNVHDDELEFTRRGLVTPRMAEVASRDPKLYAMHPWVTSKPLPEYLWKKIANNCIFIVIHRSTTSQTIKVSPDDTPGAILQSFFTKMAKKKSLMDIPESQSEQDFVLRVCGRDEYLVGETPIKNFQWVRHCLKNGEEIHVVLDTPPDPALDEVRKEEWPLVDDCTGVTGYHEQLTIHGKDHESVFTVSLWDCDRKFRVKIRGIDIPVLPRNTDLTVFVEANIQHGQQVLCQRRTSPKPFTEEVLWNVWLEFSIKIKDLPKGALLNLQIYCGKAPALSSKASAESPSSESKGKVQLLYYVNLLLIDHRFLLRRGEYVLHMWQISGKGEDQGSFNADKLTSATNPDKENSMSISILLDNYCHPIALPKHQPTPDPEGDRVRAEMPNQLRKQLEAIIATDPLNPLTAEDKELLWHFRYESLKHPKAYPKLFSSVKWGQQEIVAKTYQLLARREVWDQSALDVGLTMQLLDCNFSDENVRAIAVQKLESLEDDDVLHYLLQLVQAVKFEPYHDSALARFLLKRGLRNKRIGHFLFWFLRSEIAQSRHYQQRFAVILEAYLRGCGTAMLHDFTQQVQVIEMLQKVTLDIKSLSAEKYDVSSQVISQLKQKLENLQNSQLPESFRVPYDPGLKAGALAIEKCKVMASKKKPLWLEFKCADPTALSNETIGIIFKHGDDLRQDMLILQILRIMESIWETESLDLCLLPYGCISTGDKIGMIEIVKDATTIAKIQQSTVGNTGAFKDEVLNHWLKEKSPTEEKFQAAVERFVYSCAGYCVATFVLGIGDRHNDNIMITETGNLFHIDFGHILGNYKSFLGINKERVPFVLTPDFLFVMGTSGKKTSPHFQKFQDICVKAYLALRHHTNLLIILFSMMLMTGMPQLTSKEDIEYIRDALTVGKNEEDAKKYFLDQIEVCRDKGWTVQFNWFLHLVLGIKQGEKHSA

Chain of PI3Kδ (p110δ/p85α) Recombinant Human Protein (O00329 whole entry): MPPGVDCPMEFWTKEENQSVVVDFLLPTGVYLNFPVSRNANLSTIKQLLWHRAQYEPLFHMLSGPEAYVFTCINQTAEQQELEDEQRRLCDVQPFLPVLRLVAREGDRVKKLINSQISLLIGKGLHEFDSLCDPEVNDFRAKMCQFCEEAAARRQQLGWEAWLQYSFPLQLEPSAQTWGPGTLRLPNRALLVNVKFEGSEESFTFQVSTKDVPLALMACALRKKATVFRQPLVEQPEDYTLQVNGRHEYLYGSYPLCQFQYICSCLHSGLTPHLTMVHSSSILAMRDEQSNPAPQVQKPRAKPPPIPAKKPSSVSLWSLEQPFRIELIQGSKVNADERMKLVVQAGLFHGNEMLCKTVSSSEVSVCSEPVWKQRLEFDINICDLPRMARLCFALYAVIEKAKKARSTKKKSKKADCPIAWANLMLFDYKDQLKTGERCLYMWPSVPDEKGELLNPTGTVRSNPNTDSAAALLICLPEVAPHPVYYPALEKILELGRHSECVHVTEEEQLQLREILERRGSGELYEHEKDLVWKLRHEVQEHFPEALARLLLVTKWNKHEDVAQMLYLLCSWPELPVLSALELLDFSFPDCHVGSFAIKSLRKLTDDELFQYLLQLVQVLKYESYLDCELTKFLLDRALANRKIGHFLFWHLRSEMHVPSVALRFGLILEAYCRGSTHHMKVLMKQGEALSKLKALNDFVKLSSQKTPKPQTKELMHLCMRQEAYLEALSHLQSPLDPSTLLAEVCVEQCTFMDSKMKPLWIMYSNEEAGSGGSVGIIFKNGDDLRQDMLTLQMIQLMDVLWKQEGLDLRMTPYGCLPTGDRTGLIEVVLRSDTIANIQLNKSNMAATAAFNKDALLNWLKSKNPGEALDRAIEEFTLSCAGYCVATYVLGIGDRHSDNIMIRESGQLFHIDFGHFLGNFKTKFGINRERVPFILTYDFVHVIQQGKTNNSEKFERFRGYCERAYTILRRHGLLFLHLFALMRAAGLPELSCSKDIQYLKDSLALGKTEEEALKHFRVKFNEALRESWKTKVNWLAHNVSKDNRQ
Chain of PI3Kδ (p110δ/p85α) Recombinant Human Protein (P27986 whole entry partner): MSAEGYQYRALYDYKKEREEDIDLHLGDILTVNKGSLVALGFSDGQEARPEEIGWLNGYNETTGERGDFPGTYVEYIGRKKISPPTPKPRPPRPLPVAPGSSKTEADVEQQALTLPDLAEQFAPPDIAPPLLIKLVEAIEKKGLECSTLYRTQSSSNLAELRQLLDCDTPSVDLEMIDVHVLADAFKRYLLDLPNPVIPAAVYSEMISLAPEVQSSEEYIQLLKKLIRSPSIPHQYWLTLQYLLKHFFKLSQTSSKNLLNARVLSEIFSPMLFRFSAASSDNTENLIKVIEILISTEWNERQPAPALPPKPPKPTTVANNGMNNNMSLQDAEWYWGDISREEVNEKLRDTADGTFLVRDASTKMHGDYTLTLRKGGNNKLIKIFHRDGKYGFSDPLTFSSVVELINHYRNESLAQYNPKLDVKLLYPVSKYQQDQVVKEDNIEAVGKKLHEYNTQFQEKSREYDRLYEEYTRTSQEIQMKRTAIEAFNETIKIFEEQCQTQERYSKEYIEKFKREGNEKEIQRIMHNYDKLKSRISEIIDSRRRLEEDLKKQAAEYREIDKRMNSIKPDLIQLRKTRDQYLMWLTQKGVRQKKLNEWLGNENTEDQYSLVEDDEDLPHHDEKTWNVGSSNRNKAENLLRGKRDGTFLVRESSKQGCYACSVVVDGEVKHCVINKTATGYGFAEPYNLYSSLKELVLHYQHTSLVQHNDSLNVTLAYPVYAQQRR

SMILES | IC50 [1] [nM] | IC50 [2] [nM] | IC50 [3] [nM]
CNS(=O)(=O)C1CCN(c2c(C(C)NC(=O)c3c(N)nn4cccnc34)cc(Cl)c3cn[nH]c23)C1 (stereo not drawn) [Example 92, 2-Amino-N-[1-(4-chloro-7-{3-[(methylamino)sulfonyl)pyrrolidin-1-yl}-2H-indazol-6-yl)ethyl]pyrazolo[1,5-a]pyrimidine-3-carboxamide] | < 500 | < 500 | < 100
CC(NC(=O)c1c(N)nn2cccnc12)c1cc(Cl)c2cn[nH]c2c1N1CCC(S(=O)(=O)N(C)C)CC1 (stereo not drawn) [Example 93, 2-Amino-N-[1-(4-chloro-7-{4-[(dimethylamino)sulfonyl]piperidin-1-yl}-2H-indazol-6-yl)ethyl]pyrazolo[1,5-a]pyrimidine-3-carboxamide] | > 1000 | < 2000 | < 100
CC(NC(=O)c1c(N)nn2cccnc12)c1cc(Cl)c2cn[nH]c2c1N1CCS(=O)(=O)CC1 (stereo not drawn) [Example 94, 2-Amino-N-{1-[4-chloro-7-(1,1-dioxidothiomorpholin-4-yl)-2H-indazol-6-yl]ethyl}pyrazolo[1,5-a]pyrimidine-3-carboxamide trifluoroacetate] | < 500 | < 500 | < 100
CC(=O)N[C@H]1CCN(c2c(C(C)NC(=O)c3c(N)nn4cccnc34)cc(Cl)c3cn[nH]c23)C1 (stereo partly drawn) [Example 95, N-(1-{7-[(3S)-3-(Acetylamino)pyrrolidin-1-yl]-4-chloro-2H-indazol-6-yl}ethyl)-2-aminopyrazolo[1,5-a]pyrimidine-3-carboxamide trifluoroacetate] | < 1000 | < 100 | < 100
CC(NC(=O)c1c(N)nn2cccnc12)c1cc(Cl)c2cn[nH]c2c1N1CC[C@H](NS(C)(=O)=O)C1 (stereo partly drawn) [Example 96A, 2-Amino-N-[1-(4-chloro-7-{(3S)-3-[(methylsulfonyl)amino]pyrrolidin-1-yl}-2H-indazol-6-yl)ethyl]pyrazolo[1,5-a]pyrimidine-3-carboxamide trifluoroacetate] | < 1000 | < 100 | < 100
CC(NC(=O)c1c(N)nn2cccnc12)c1cc(Cl)c2cn[nH]c2c1N1CC[C@@H](NS(C)(=O)=O)C1 (stereo partly drawn) [Example 96B, 2-Amino-N-[1-(4-chloro-7-{(3R)-3-[(methylsulfonyl)amino]pyrrolidin-1-yl}-2H-indazol-6-yl)ethyl]pyrazolo[1,5-a]pyrimidine-3-carboxamide trifluoroacetate] | > 1000 | < 100 | < 100
CCOC(=O)C1CC=C(c2c(C(C)NC(=O)c3c(N)nn4cccnc34)cc(Cl)c3cn[nH]c23)CC1 (stereo not drawn) [Example 97, Ethyl 4-[6-(1-{[(2-aminopyrazolo[1,5-a]pyrimidin-3-yl)carbonyl]amino}ethyl)-4-chloro-2H-indazol-7-yl]cyclohex-3-ene-1-carboxylate bistrifluoroacetate] | < 1000 | < 500 | < 100
COC1CC=C(c2c(C(C)NC(=O)c3c(N)nn4cccnc34)cc(Cl)c3cn[nH]c23)CC1 (stereo not drawn) [Example 100, 2-Amino-N-{1-[4-chloro-7-(4-methoxycyclohex-1-en-1-yl)-2H-indazol-6-yl]ethyl}pyrazolo[1,5-a]pyrimidine-3-carboxamide trifluoroacetate] | > 1000 | < 500 | < 100
CC(NC(=O)c1c(N)nn2cccnc12)c1cc(Cl)c2cn[nH]c2c1C1=CCC(C#N)CC1 (stereo not drawn) [Example 101, 2-Amino-N-{1-[4-chloro-7-(4-cyanocyclohex-1-en-1-yl)-2H-indazol-6-yl]ethyl}pyrazolo[1,5-a]pyrimidine-3-carboxamide trifluoroacetate] | < 500 | < 500 | < 100
COC(=O)C1CCN(c2c(C(C)NC(=O)c3c(N)nn4cccnc34)cc(Cl)c3cn[nH]c23)C1 (stereo not drawn) [Example 102, Methyl 1-[6-(1-{[(2-aminopyrazolo[1,5-a]pyrimidin-3-yl)carbonyl]amino}ethyl)-4-chloro-2H-indazol-7-yl]pyrrolidine-3-carboxylate trifluoroacetate] | > 1000 | < 500 | < 100
CC(=O)N[C@H]1CCCN(c2c(C(C)NC(=O)c3c(N)nn4cccnc34)cc(Cl)c3cn[nH]c23)C1 (stereo partly drawn) [Example 104, N-(1-(7-((S)-3-Acetamidopiperidin-1-yl)-4-chloro-1H-indazol-6-yl)ethyl)-2-aminopyrazolo[1,5-a]pyrimidine-3-carboxamide trifluoroacetate] | < 500 | < 100 | < 100
CC(NC(=O)c1c(N)nn2cccnc12)c1cc(Cl)c2cn[nH]c2c1N1CCC[C@H](NS(C)(=O)=O)C1 (stereo partly drawn) [Example 105, 2-Amino-N-[1-(4-chloro-7-{(3S)-3-[(methylsulfonyl)amino]piperidin-1-yl}-2H-indazol-6-yl)ethyl]pyrazolo[1,5-a]pyrimidine-3-carboxamide trifluoroacetate] | < 500 | < 100 | < 100
CCOC(=O)C1CCN(c2c(C(C)NC(=O)c3c(N)nn4cccnc34)cc(Cl)c3cn[nH]c23)CC1 (stereo not drawn) [Example 106, Ethyl 1-[6-(1-{[(2-aminopyrazolo[1,5-a]pyrimidin-3-yl)carbonyl]amino}ethyl)-4-chloro-2H-indazol-7-yl]piperidine-4-carboxylate trifluoroacetate] | > 1000 | < 500 | < 100
CNC(=O)C1CCN(c2c(C(C)NC(=O)c3c(N)nn4cccnc34)cc(Cl)c3cn[nH]c23)CC1 (stereo not drawn) [Example 107, 2-Amino-N-[1-(4-chloro-7-{4-[(methylamino)carbonyl]piperidin-1-yl}-2H-indazol-6-yl)ethyl]pyrazolo[1,5-a]pyrimidine-3-carboxamide trifluoroacetate] | < 500 | < 500 | < 100
CC(NC(=O)c1c(N)nn2cccnc12)c1cc(Cl)c2ccnn2c1N1CCCS(=O)(=O)CC1 (stereo not drawn) [Example 109, 2-Amino-N-{1-[4-chloro-7-(1,1-dioxido-1,4-thiazepan-4-yl)pyrazolo[1,5-a]pyridin-6-yl]ethyl}pyrazolo[1,5-a]pyrimidine-3-carboxamide trifluoroacetate] | < 500 | < 100 | < 100
CC(NC(=O)c1c(N)nn2cccnc12)c1cc(Cl)c2ccnn2c1N1CCNS(=O)(=O)CC1 (stereo not drawn) [Example 110, 2-Amino-N-{1-[4-chloro-7-(1,1-dioxido-1,2,5-thiadiazepan-5-yl)pyrazolo[1,5-a]pyridin-6-yl]ethyl}pyrazolo[1,5-a]pyrimidine-3-carboxamide trifluoroacetate] | < 500 | < 100 | < 100
CC(NC(=O)c1c(N)nn2cccnc12)c1cc(Cl)c2ccnn2c1N1CCS(=O)(=O)C(C)(C)C1 (stereo not drawn) [Example 111, 2-Amino-N-{1-[4-chloro-7-(2,2-dimethyl-1,1-dioxidothiomorpholin-4-yl)pyrazolo[1,5-a]pyridin-6-yl]ethyl}pyrazolo[1,5-a]pyrimidine-3-carboxamide trifluoroacetate] | < 500 | < 100 | < 100
CC(NC(=O)c1c(N)nn2cccnc12)c1cc(Cl)c2c(Cl)cnn2c1N1CCS(=O)(=O)C(C)C1 (stereo not drawn) [Example 112A, 2-Amino-N-{1-[3,4-dichloro-7-(2-methyl-1,1-dioxidothiomorpholin-4-yl)pyrazolo[1,5-a]pyridin-6-yl]ethyl}pyrazolo[1,5-a]pyrimidine-3-carboxamide trifluoroacetate] | < 500 | < 100 | < 100
